Reference: patent US10939678B2, “Adjuvant compositions and related methods for reducing herbicide volatility” (BOARD OF TRUSTEES OF MICHIGAN STATE UNIVERSITY, priority 2015, dated 2021)
Structures can show the parent of a compound that is named as a salt.

Columns and labels:
[1] = approximate, by way of illustration; cited from earlier work
[2] = tested on: soybean plants (PIONEER 92M92); assay: Bioassay of herbicide volatility from sprayed wheat to soybean plants in plant growth chambers (visual soybean injury); assay type: in vivo; conditions: 1.12 kg a.i./ha, without any adjuvants
Source text: A wide range of soil, plant, environmental, and herbicide factors (e.g., vapor pressure and water solubility of herbicide, surface characteristics) can affect herbicide volatility from soils and plants. Comparison of the volatilization would be most readily visualized by appropriate bioassay systems. These examples illustrate a bioassay system for evaluating herbicide volatilization from plant substrates. In the bioassay system, a herbicide composition including a volatile growth regulator herbicide (2,4-D) and one or more adjuvants was applied foliarly to wheat plants (amber red wheat). Twenty minutes later, soybean plants (PIONEER 92M92 soybean plants) sensitive to the volatile growth regulator herbicide were placed in the middle of the sprayed wheat plants.
Measurement of herbicide volatility from wheat to soybean. Plant growth chambers formed from clear circular plastic containers (about 27 cm diameter) with a spacer pot in the middle were used to grow wheat plants (from amber red wheat seed) in a professional potting mix. […] The herbicide compositions were prepared and applied at a rate of 0.84 kg a.i./ha (active ingredient per hectare) at 93.5 L/ha (10 gal/acre) and 172 kPa (25 psi) using a flat fan nozzle tip (TEEJET XR8001E or equivalent; available from Spraying Systems, Co., Wheaton, Ill.).
Soybean plants (PIONEER 92M92) were seeded into 10 cm diameter round pots. A single pot with soybean plants was placed in the center of each circular plastic container 20 minutes after spraying the wheat with the respective herbicide treatment composition (i.e., with the soybean plant pot replacing the spacer pot present during wheat growth and herbicide composition application). Open clear plastic cylinders were then taped to the top of the circular containers and placed in a greenhouse. The open clear plastic cylinders were tall enough to add an open circumferential wall (about 28 cm high and having a circular top opening about 20 cm in diameter) to the plant growth chambers (i.e., with the height being relative to the soil surface for the wheat and soybean plants). Visual evaluation of soybean injury was evaluated 7, 10, 14, and 21 days after treatment/application (DAT) of the herbicide composition and continued growth under greenhouse conditions. Data were subjected to analysis of variance using PROC GLM in SAS and the results are the means of two experiments with four replications in each.
Similar trials were also performed using herbicide compositions with volatile dicamba volatile growth regulator herbicides (dimethylamine salt of dicamba (BANVEL) and diglycolamine salt of dicamba (CLARITY)) at 1.12 kg a.i./ha in place of 2,4-D and without any adjuvants.

Row | Compound | vapor pressure [1] | % injury of soybean plants from dicamba volatility ([2]; 7-DAT) | % injury of soybean plants from dicamba volatility ([2]; 14-DAT) | % injury of soybean plants from dicamba volatility ([2]; 21-DAT)
1 | CCCCC(CC)COC(=O)COc1ccc(Cl)cc1Cl (stereo not drawn) [2,4-D 2-ethylhexyl ester] | ~4.8×10^−4 Pa |  |  | 
2 | CCCCOCCOC(=O)COc1ccc(Cl)cc1Cl [2,4-D butoxyethyl ester] | ~3.2×10^−4 Pa |  |  | 
3 | CC(C)OC(=O)COc1ccc(Cl)cc1Cl [2,4-D isopropyl ester] | ~1.9×10^1 Pa |  |  | 
4 | COc1c(Cl)ccc(Cl)c1C(=O)O [diglycolamine salt of dicamba, 3,6-dichloro-2-methoxybenzoic acid] |  | about 28% | about 31% | about 41%
5 | COc1c(Cl)ccc(Cl)c1C(=O)O [dimethylamine salt of dicamba, 3,6-dichloro-2-methoxybenzoic acid] |  | ~39% | ~39% | about 41%
